Measurements reported in patent US6255324A, “Amino-and mercurio-substituted 4',5'-dihydropsoralens and therapeutical uses thereof” (priority 1998, dated 2001).
Read-outs that look alike come from different tables or passages of the source.

Legend:
Chlorella vulgaris = assay: Algicidal assay, MIC against Chlorella in modified Allen's medium; type: cell-based; conditions: Table III, 14 days, 26 to 28° C, no unit in table (ppm)
Protocol: To assay the activity of the 5'-substituted-4',5'-dihydropsoralens of the invention against Chlorella, the Allen method (A. A. Allen, […], Journal of Phycology, 4, 1-4) was employed. […] The minimum inhibitory concentration (MIC) of the compounds tested against the fungus Aspergillus niger using an MSY broth is shown in Table II.
Test tubes containing modified Allen's medium were treated with increasing dosages of the compound to be tested and inoculated with a suspension of algal cells. After fourteen days of incubation, algal growth was rated as positive or negative. The minimum inhibitory concentration (MIC) of the compound is the smallest dosage showing negative algal growth.
The apparatus required consisted of sterilized test tubes, 18-150 mm and an incubator, capable of a constant (±2° C.) temperature within 26 to 28° C. The following procedure was used:
(1) Stock solutions (g/200 g deionized water each) were generated with: K2 HPO4, 1.50 g; MgSO4, 7H2 O, 1.50 g; Na2 CO3, 0.80 g; CaCl2 2H2 O, 0.50 g; Na2 SiO3 9H2 O, 1.16 g, and Citric acid, 1.20 g.
(3) The modified Allen's medium was prepared in a volumetric flask by the addition of 1.5 g NaNO3, 5.0 mL stock solution K2 HPO4, 5.0 mL stock solution MgSO4 -- 7H2 O, 5.0 mL Stock solution Na2 CO3, 10.0 mL stock solution CaCl2 2H2 O, 10.0 mL stock solution Na2 SiO3 9H2 O, 1.0 mL stock solution Citric acid and 1.0 mL stock solution PIV metal with enough deionized water to make 1000 mL of medium (Allen, 1968). The pH was adjusted to 7.8 and 5 mL of medium is added to each test tube. The tubes were sterilized in the autoclave for 20 minutes at 15 psi at 121° C. The test tubes were allowed to cool to 45-50° C. before adding the test compound and the inoculurn to the medium.
(4) The inoculum was a cell suspension from a 14-day-old culture of Chlorella vulgaris (UTEX 26, University of Texas) that was grown in modified Allen's medium.
The concentration of the stock solution in water or acetone of the compound to be tested is dependent on the largest dose required to be tested. Dilutions of the stock solution were made so that 100 μL of the stock solution of the corresponiding dilution was added per test tube. 100 μL of the solvent was added to the control to prepare the stock solution.
The inoculation consists of the addition of 100 μL of inoculurn per test tube.
The incubation of the control test tube and the test tubes containing compound and inoculum occurred in an incubator set between 26 to 28° C., with the temperature not varying more than ±2° C. Light was provided by plant growth fluorescent tubes and the test tubes were allowed to stand in the incubator for 14 days.
Rating of the test tubes containing different dosages of the compound will be positive or negative. […] If the medium in the rubes remains colorless, a negative (not contaminated) rating is given. The control is always positive. The minimum inhibitory concentration (MIC) of the compound is determined to be the smallest dosage showing negative algal growth.

Aspergillus niger = assay: Fungicidal assay, MIC against Aspergillus niger in MSY broth; type: cell-based; conditions: Table II, four days at 28° C, in the dark, no unit in table (ppm levels)
Protocol: The antifungal activities of compounds synthesized were measured by determining the inhibition of growth of Aspergillus niger in a standard liquid medium. The liquid growth medium is described as a solution of mineral salts and yeast extract (MSY). The MSY broth was prepared as described in ASTM G21-70, and amended with glucose (10 g/l) and yeast extract (1 g/l). An aliquot ([…]) of sterile medium was dispensed into each test well of a standard 96 well microplate (Corning No. 430247). Stock solutions of test compounds were prepared by dissolving the materials in 9:1 (v/v) solutions of acetone:methanol. Appropriate volumes of stock solutions were added to the test wells in order to achieve the desired ppm levels. Each test well (plus controls) was then inoculated with […] of a standardized suspension of Aspergillus niger. The cell suspension was prepared by suspending viable cells from a slant of potato dextrose agar into sterile, deionized water. The suspension was then adjusted to provide OD686 =0.28. This density contains approximately 2.5×10^7 CFU (colony forming units)/ml. The microplates were incubated in the dark for four days at 28° C. The optical density for each well at 686 nm was then recorded automatically using a SpectraMax 340 microplate reader (Molecular Devices Corp., Sunnyvale, Calif.). All wells were visually inspected in order to corroborate data from the instrument.
The antifungal activity was measured as minimum inhibitory concentrations or MIC of the 5'-substituted-4',5'-dihydropsoralens.

PAM 212 keratinocytes [1] = assay: PAM 212 keratinocyte growth inhibition (photo-toxicity with UVA / dark-toxicity without light); type: cell-based; conditions: UVA 320-400 nm, 1.28 J/cm2, growth 4-5 days
Protocol: Representative examples of the compounds described and claimed herein were tested in this assay for biological activity and found to be potent inhibitors of cell growth. Inhibition of cell growth was rapid, dependent on concentration, and required light activation. […] A description of this assay follows.
The photobiological activity was assayed using a keratinocyte cell line grown in a monolayer culture. In this assay, PAM 212 keratinocytes were grown in Dulbecco's Modified Eagle's medium supplemented with 10% newborn calf serum in a 5% carbon dioxide incubator. Cells were inoculated into 6-well Falcon plastic culture dishes at 25,000 cells per well. After 24 hours, the medium was charged to fresh growth medium supplemented with increasing concentrations of the test compounds or the control medium. Controls and test concentrations were analyzed in triplicate.
These plates were then incubated in a 37 degree C. carbon dioxide incubator. After 30 minutes culture plates were exposed to UVA light (UVA, 320-400 nm) emitted from a bank of four BLB fluorescent light tubes (F40 BL, Sylvania) placed approximately 10 cm above the cell culture plates. The incident light on the culture plates was 2.4 mW/cm^2 as measured with an International Light UV radiometer, Model IL 442A. The cells were exposed to 1.28 J/square centimeter of UVA.
After completion of the irradiation phase, the cell culture medium was drained, the cells refed with fresh growth medium and then re-incubated in the carbon dioxide incubator to allow for cell growth. After 4-5 days of growth the culture plates were removed from the incubator and the cell culture medium was drained. The cells were detached from the plates with trypsin and counted in a Coulter Counter. For control cells or for cells treated with test compounds, cell growth was determined as a percentage of control. […] This value is shown in Table I for a variety of phototherapeutics.

[2] = tested on: Mycobacterium tuberculosis H37Rv; assay: Antituberculosis primary in vitro screen, BACTEC 460; type: cell-based, Mycobacterium tuberculosis H37Rv ATCC 27294; conditions: 12.5 μg/mL, 37° C
PAM 212 keratinocytes [3] = assay: PAM 212 keratinocyte growth inhibition (photo-toxicity with UVA / dark-toxicity without light); type: cell-based

Compound [I][Hg][CH2]C1Cc2ccccc2O1 (centres unmarked) [T = HgI, 2-Iodomercurimethyl-2,3-dihydrobenzofuran] has an MIC (Chlorella vulgaris) of 10, an MIC (Aspergillus niger) of under 8 and an IC50 (PAM 212 keratinocytes [1]) of 5.7 µM. For the same compound, the “Anti-tubercular Activity (% inhibition)” value [2] was 99% and the IC50 (PAM 212 keratinocytes [3]) was 12 µM.
